Measured values from the supplement of paper PMC10307832.

How the values were obtained:
Test in all cases: relative viability (nuclei count vs DMSO), 5 days (fraction); higher = more cells survive
[1] = compound: COc1cc2c(Oc3ccc4[nH]c(C)cc4c3F)ncnc2cc1OCCCN1CCCC1 [Cediranib] + CS(=O)(=O)N1CCN(Cc2cc3nc(-c4cccc5[nH]ncc45)nc(N4CCOCC4)c3s2)CC1 [Pictilisib] (partner 1 µM)
Procedure, shortened: (§1)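 Lung cancer cell lines in 1536-well plates were dosed by pin tool the day after seeding, either with one drug alone or with a fixed anchor-drug dose plus five library-drug doses (not always all listed) in √10 steps. After 5 days, cells were fixed and their nuclei stained in one step (final 0.05% Triton X-100, 1% formaldehyde, 1 ug/ml Hoechst), then counted on 4× images. Relative viability is the nuclei count in treated wells divided by that in vehicle wells. Values are medians of duplicate plates.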

[2] = compound: Nc1ncn([C@H]2C[C@H](O)[C@@H](CO)O2)c(=O)n1 [Decitabine] + COc1cccc2cc(-c3nc([C@H]4CC[C@H](C(=O)O)CC4)n4ncnc(N)c34)[nH]c12 [OSI-027] (partner 0.5 µM)
Procedure, shortened: as §1

[3] = compound: Nc1ncn([C@H]2C[C@H](O)[C@@H](CO)O2)c(=O)n1 [Decitabine] + CS(=O)(=O)N1CCN(Cc2cc3nc(-c4cccc5[nH]ncc45)nc(N4CCOCC4)c3s2)CC1 [Pictilisib] (partner 1 µM)
Procedure, shortened: as §1

[4] = compound: Nc1ncn([C@H]2C[C@H](O)[C@@H](CO)O2)c(=O)n1 [Decitabine] + N=C(N)NC(=N)NCCc1ccccc1 [Phenformin] (partner 250 µM)
Procedure, shortened: as §1

Cell Line | relative viability ([1]; first compound 0.04 µM) | relative viability ([1]; first compound 0.1265 µM) | relative viability ([1]; first compound 0.4 µM) | relative viability ([1]; first compound 1.265 µM) | relative viability ([1]; first compound 4 µM) | relative viability ([2]; first compound 0.04 µM) | relative viability ([2]; first compound 0.1265 µM) | relative viability ([2]; first compound 0.4 µM) | relative viability ([2]; first compound 1.265 µM) | relative viability ([2]; first compound 4 µM) | relative viability ([3]; first compound 0.1265 µM) | relative viability ([3]; first compound 0.4 µM) | relative viability ([3]; first compound 1.265 µM) | relative viability ([3]; first compound 4 µM) | relative viability ([4]; first compound 0.04 µM) | relative viability ([4]; first compound 0.1265 µM) | relative viability ([4]; first compound 0.4 µM) | relative viability ([4]; first compound 1.265 µM) | relative viability ([4]; first compound 4 µM) | relative viability ([3]; first compound 0.04 µM)
LK-2 | 0.607 | 0.524 | 0.573 | 0.591 | 0.319 | 0.188 | 0.2 | 0.191 | 0.252 | 0.212 | 0.607 | 0.505 | 0.401 | 0.396 | 0.376 | 0.522 | 0.375 | 0.295 | 0.244 | –
LOU-NH91 | 0.534 | 0.473 | 0.494 | 0.479 | 0.495 | 0.497 | 0.738 | 0.621 | 0.629 | 0.672 | 0.478 | 0.517 | 0.518 | 0.495 | 0.442 | 0.724 | 0.732 | 0.588 | 0.659 | 0.518
LU99A | 0.354 | – | 0.314 | 0.276 | 0.36 | 0.307 | 0.291 | 0.319 | 0.255 | 0.293 | 0.325 | 0.355 | 0.308 | 0.311 | 0.825 | 1 | 0.757 | 0.648 | 0.627 | 0.369
LXF-289 | 0.815 | 0.783 | 0.729 | 0.779 | 0.819 | 0.646 | 0.617 | 0.361 | 0.31 | 0.23 | 0.808 | 0.471 | 0.4 | 0.317 | 0.431 | 0.371 | 0.263 | 0.26 | 0.228 | 0.75
NCI-H23 | 0.472 | – | 0.533 | 0.345 | 0.569 | 0.48 | 0.498 | 0.255 | 0.231 | 0.245 | 0.59 | 0.281 | 0.266 | 0.196 | 0.579 | 0.548 | 0.297 | 0.242 | 0.244 | 0.528
NCI-H322M | 0.52 | 0.698 | 0.533 | 0.467 | 0.521 | 0.507 | 0.496 | 0.432 | 0.473 | 0.441 | 0.537 | 0.53 | 0.397 | 0.424 | 0.647 | 0.745 | 0.6 | 0.478 | 0.549 | 0.408
NCI-H358 | 0.323 | 0.462 | 0.314 | 0.271 | 0.404 | 0.372 | 0.254 | 0.2 | 0.113 | 0.12 | 0.335 | 0.352 | 0.313 | 0.25 | 0.246 | 0.258 | 0.168 | 0.148 | 0.136 | 0.315
NCI-H441 | 0.492 | 0.474 | 0.45 | 0.378 | 0.426 | 0.415 | 0.441 | 0.246 | 0.261 | 0.255 | 0.306 | 0.286 | 0.205 | 0.179 | 0.494 | 0.428 | 0.306 | 0.289 | 0.231 | 0.28
